Results taken from PMC3070735, “Uremic Toxins Inhibit Transport by Breast Cancer Resistance Protein and Multidrug Resistance Protein 4 at Clinically Relevant Concentrations” (PLoS ONE, 2011).
Structures can show the parent of a compound that is named as a salt.

Columns and labels:
[1] = Plasma concentrations of uremic toxins in CRF and ESRD patients and healthy controls (HPLC, LC/MS-MS); format: in vivo, human
Method: Blood samples were obtained from 4 patients with chronic renal failure (CRF) during regular check-up, 6 patients with end-stage renal disease (ESRD) before hemodialysis and 4 healthy controls. None of the subjects had been fasting at the time of blood sampling. Blood was collected in an EDTA Vacutainer and was immediately centrifuged at 3,000 x g for 10 min. Subsequently, plasma was collected and stored at −20°C. Before chromatography an aliquot of plasma was diluted in H2O (1∶1) and deproteinized with perchloric acid (final concentration 3.3% (v/v)). Next, samples were centrifuged at 12,000 x g for 3 min and 50 µl of the supernatant was injected into the HPLC-system (Spectra-Physics Analytical, Spectrasystem SCM400). […] Separation was performed at a flow rate of 1 ml/min with eluent A (95% (v/v) H2O, 5% (v/v) acetonitril and 0.1% (v/v) heptafluorobutyric acid) and eluent B (50% (v/v) H2O, 50% (v/v) acetonitrile and 0.1% (v/v) heptafluorobutyric acid) under the following gradient conditions: 0–1 min, 100% eluent A; 1–15 min, 100–25% eluent A; 15–17 min, 25% eluent A; 17–18 min, […]; 18–23 min, 100% eluent A. The compounds were detected at a wavelength of 230 nm. For the detection of phenylacetic acid, chromatography was performed on a C18 HPLC column (Polaris 3 C18-A 150×4.6 mm; Varian, Middelburg, the Netherlands) with eluent A (97% (v/v) 50 mM sodium phosphate buffer [pH 6.5] and 3% (v/v) methanol) and eluent B (50% (v/v) H2O, 49% (v/v) acetonitrile and 1% (v/v) tetrahydrofuran) using the following gradient: 0–1 min, 100% eluent A; 1–15 min, 100–90% eluent A; 15–18 min, 10–100% eluent B; 18–22 min, 100% eluent B; 22–25 min, 0–100% eluent A; 25–30 min, 100% eluent A. The flow rate was 1 ml/min and phenylacetic acid was measured at a wavelength of 215 nm. Standards of the compounds were also run in order to quantify the amount of toxins found in the samples. Acquired data were processed with PC1000 software (Spectrasystem).
To determine the levels of kynurenic acid, blood was collected from CRF patients and processed as described above. Subsequently, 10 µl of the clear supernatant was injected into the LC/MS-MS system that consisted of an Accela HPLC system (Thermo scientific, Breda, the Netherlands) equipped with a C18 HPLC column (VisionHT C18 B 100×2 mm, 1.5 µm; Grace). Separation was performed at a flow rate of 150 µl/min with eluent A (5 mM ammonium formate+0.01% (v/v) trifluoroacetic acid) and eluent B (50% acetonitrile) under the following gradient conditions: 0–10 min, 98–50% eluent A; 10–15 min, 50% eluent A; 15–16 min, 50–98% eluent A; 16–21 min, 98% eluent A. The fractions eluted were directly passed through a TSQ Vantage tandem mass spectrometer (Thermo scientific) equipped with an electro-spray ionization source operating in the positive ion mode. The ion spray voltage was 4 kV, source temperature was 350°C and collision gas pressure was 1.5 bar. Kynurinic acid and the internal standard 1-methyl-tryptophan were quantified by selected reaction monitoring (SRM). […] Acquired data were processed with Thermo Xcaliber software (Thermo scientific).

[2] = Uremic plasma concentrations (Cu, Cmax) in CKD patients from the EUTox database and literature; format: in vivo, human; conditions: calculated as Cmax = Cu + 2 SD; read-out: Hypothetical Cmax
Excerpt: The calculated Ki and IC20 values were compared with the mean plasma concentrations measured in ESRD patients during this study (Cm), the highest mean/median (Cu) and the highest maximal plasma concentrations (Cmax) measured in the literature in patients with CKD are also shown. The IC20 value was used since we believe that a 20% decrease in transport can already have a clinical impact. The Cu and Cmax values were obtained from the online database of the European Uremic Toxin (EUTox) Work Group (www.uremic-toxins.org; [19]), unless stated otherwise.

[3] = CRF patients (n = 4), total plasma
[4] = ESRD patients (n = 6), total plasma
[5] = healthy controls (n = 4), total plasma

SMILES | Cm, mean plasma concentration determined in this study ([1]; human, in vivo) | Mean plasma concentration [1, 3] | Cm, mean plasma concentration determined in this study [1, 4] | Mean plasma concentration [1, 5] | also measured
O=C(O)CNC(=O)c1ccccc1 [hippuric acid] | 160 µM | – | – | – | –
O=C(O)Cc1c[nH]c2ccccc12 [indole-3-acetic acid] | 4 µM | – | – | – | –
O=S(=O)(O)Oc1c[nH]c2ccccc12 [indoxyl sulfate] | – | 65 µM | 129 µM | 13 µM | –
O=C(O)c1cc(=O)c2ccccc2[nH]1 [kynurenic acid] | 1 µM | – | – | – | –
O=C(O)Cc1ccccc1 [phenylacetic acid] | – | 4 µM | 18 µM | 5 µM | Cmax [2]: 7700 µM; Maximum plasma concentration ([1]; CRF patients): 9 µM; Maximum plasma concentration ([1]; ESRD patients): 83 µM
